Assay results: publication PMC5269379 (Organic letters, 2016)
“Also recorded” adds a separate entry of the source.

Assays:
rabbit red blood cells = test: Synergistic hemolytic activity in combination with CylLL″; type: cell-based; conditions: Figure S6
L. lactis 481 = type: cell-based, Lactococcus lactis; conditions: for combined with CylLL″ MIC: concentration of each component; for combined with CylLL″ MIC / individual MIC: L. lactis 481; for individual MIC: peptide alone
[1] = system: Lactococcus lactis HP and L. lactis CNRZ 481; test: Antimicrobial activity assay; type: cell-based; conditions: in combination with CylLL″; Figures S2, S5

CylLS″-Dhb2Dha (DL-A ring, DL-B ring) [compound 11]
hemolytic activity (in words) (rabbit red blood cells): no decrease of hemolytic activity | combined with CylLL″ MIC (L. lactis 481; combined with CylLL″): 1.0 µM | fold increase of MIC in liquid culture (L. lactis 481; combined with CylLL″, liquid culture): 10 fold | individual MIC (L. lactis 481): >50 µM | antimicrobial activity (in words) [1]: decreased antimicrobial activity; also recorded: markedly smaller zone of growth inhibition

cytolysin L [CylLL″, reference compound]
individual MIC (L. lactis 481): >50 µM

cytolysin S [CylLS″, reference compound]
hemolytic activity (in words) (rabbit red blood cells): very similar hemolytic activity | combined with CylLL″ MIC (L. lactis 481; combined with CylLL″): 0.05 µM | individual MIC (L. lactis 481): >50 µM

CylLS″-Dhb2Dha [biosynthetic 12]
hemolytic activity (in words) (rabbit red blood cells): very similar hemolytic activity | combined with CylLL″ MIC (L. lactis 481; combined with CylLL″): 0.1 µM | individual MIC (L. lactis 481): >50 µM | antimicrobial activity (in words) [1]: very similar antimicrobial activity

CylLS″-Dhb2Dha (LL-A ring, DL-B ring) [synthetic 12]
combined with CylLL″ MIC (L. lactis 481; combined with CylLL″): 0.1 µM | individual MIC (L. lactis 481): >50 µM | antimicrobial activity (in words) [1]: identical antimicrobial activity
